# From paper PMC6155683, “Pharmacokinetics Studies of 12 Alkaloids in Rat Plasma after Oral Administration of Zuojin and Fan-Zuojin Formulas” (Molecules : A Journal of Synthetic Chemistry and Natural …, 2017)
# Read-outs that look alike come from different tables or passages of the source.
# What was measured:
# [1] = PK study of the 12 alkaloids in rat plasma after oral administration of ZJ and FZJ extract (LC–MS/MS); type: in vivo
# Method: The time schedule included 15 time-points and six rats were sampled at each time-point. All the rats were orally administered with ZJ extract (suspended in water) at a dose of 3.38 g/kg body weight (dosages of the 12 alkaloids were shown in Table S4), equivalent to crude drug dose of 12 g/kg body weight. Blood samples were collected from the suborbital vein of the rats at 10, 20, 30, 60, 90, 120, 180, 240, 300, 330, 360, 480, 720, 1440, 2160 min after administration, and centrifuged immediately at 5000 rpm for 10 min. The plasma samples were stored at −20 °C until analysis.
# Similarly, the time schedule of other rats included 15 time-points and six rats were orally administered with FZJ extract at a dose of 3.76 g/kg body weight (also equivalent to crude drug dose of 12 g/kg body weight, Table S4). Blood samples were collected and treated as mentioned above in the PK study of ZJ extract.
# PK parameters of the 12 alkaloids including AUC0→t, AUC0→∞, mean retention time (MRT0→t, MRT0→∞), and elimination half-life (t1/2) were calculated with non-compartmental method by DAS 2.0 software (Mathematical Pharmacology Professional Committee of China, Shanghai, China). Maximum plasma drug concentration (Cmax) and time to reach the maximum plasma drug concentration (Tmax) were observed directly from the detected C–T data. The results were expressed as arithmetic mean ± standard deviation (SD).
# [2] = cited from earlier work
# [3] = jejunum vs ileum and colon; cited from earlier work
# [4] = cited from earlier work; remark: listed apart in the source
# P-gp = settings: cited from earlier work
# [5] = Stability of analytes in rat plasma under storage conditions; type: physicochemical; settings: n = 6; for Stability RE, 3 freeze-thaw cycles / Stability RE, 30 days at −20 °C: rat plasma; for Stability RE, processed samples' stability: room temperature 24 h
# Method: The stabilities of analytes in plasma were assessed by analyzing the QC samples at three concentration levels under the following storage conditions: after three freeze (−20 °C)-thaw (room temperature) cycles; stored at −20 °C for 30 days, and comparing the results with those of freshly prepared QC samples. Stabilities of the processed samples at room temperature for 24 h were also assessed.
# [6] = cited from earlier work; remark: listed apart in the source
# Caco-2 cell monolayer = settings: cited from earlier work
smiles,measurement,setting,value
COc1ccc2cc3[n+](cc2c1OC)CCc1cc2c(cc1-3)OCO2 [berberine],AUC(0-t),"[1]; 3.38 g/kg, rat plasma, oral ZJ extract, mean ± SD, n = 6, read-out: AUC0→t",277 ± 50.1 ng·h/mL
same,AUC(0-inf),"[1]; 3.38 g/kg, rat plasma, oral ZJ extract, mean ± SD, n = 6, read-out: AUC0→∞",300 ± 55.3 ng·h/mL
same,Cmax,"[1]; 3.38 g/kg, rat plasma, oral ZJ extract, mean ± SD, n = 6, read-out: Cmax",109 ± 48.3 ng/mL
same,MRT last,"[1]; 3.38 g/kg, rat plasma, oral ZJ extract, mean ± SD, n = 6, read-out: MRT0→t (converted)",6.46 h
same,MRT inf,"[1]; 3.38 g/kg, rat plasma, oral ZJ extract, mean ± SD, n = 6, read-out: MRT0→∞ (converted)",8.58 h
same,half-life,"[1]; 3.38 g/kg, rat plasma, oral ZJ extract, mean ± SD, n = 6, read-out: t1/2",6.3 ± 3.24 h
same,Tmax,"[1]; 3.38 g/kg, rat plasma, oral ZJ extract, read-out: Tmax (converted)",1.5 h
same,AUC(0-t),"[1]; 3.76 g/kg, rat plasma, oral FZJ extract, mean ± SD, n = 6, read-out: AUC0→t",48.1 ± 9.6 ng·h/mL
same,AUC(0-inf),"[1]; 3.76 g/kg, rat plasma, oral FZJ extract, mean ± SD, n = 6, read-out: AUC0→∞",50.2 ± 10.7 ng·h/mL
same,Cmax,"[1]; 3.76 g/kg, rat plasma, oral FZJ extract, mean ± SD, n = 6, read-out: Cmax",23.7 ± 7.42 ng/mL
same,MRT last,"[1]; 3.76 g/kg, rat plasma, oral FZJ extract, mean ± SD, n = 6, read-out: MRT0→t (converted)",4.07 h
same,MRT inf,"[1]; 3.76 g/kg, rat plasma, oral FZJ extract, mean ± SD, n = 6, read-out: MRT0→∞ (converted)",4.68 h
same,half-life,"[1]; 3.76 g/kg, rat plasma, oral FZJ extract, mean ± SD, n = 6, read-out: t1/2",2.22 ± 0.835 h
same,Tmax,"[1]; 3.76 g/kg, rat plasma, oral FZJ extract, read-out: Tmax (converted)",3 h
same,Tsec (time of the secondary peak in C–T curve),"[1]; rat plasma, oral FZJ extract",30 min
same,Csec (drug concentration of the secondary peak in C–T curve),"[1]; rat plasma, oral FZJ extract, mean ± SD, n = 6",11.64 ± 7.28 ng/mL
same,Tsec (time of the secondary peak in C–T curve),"[1]; rat plasma, oral ZJ extract",300 min
same,Csec (drug concentration of the secondary peak in C–T curve),"[1]; rat plasma, oral ZJ extract, mean ± SD, n = 6",44.68 ± 21.28 ng/mL
same,primary elimination route in vivo,[2],renal excretion
same,absorption rate constant (Ka) compared between intestinal sites,[3],greater than that at ileum and colon
same,berberine existed as prototype,[4]; 0–36 h after intragastric administration,at least 56%
same,berberine remained in the GI tract,[4]; at 36 h after intragastric administration,24%
same,P-gp substrate,P-gp; not told,P-gp substrates
same,"Stability RE, 3 freeze-thaw cycles",[5]; high QC concentration,−14.86%
same,"Stability RE, 30 days at −20 °C",[5]; high QC concentration,−14.65%
same,"Stability RE, 3 freeze-thaw cycles",[5]; low QC concentration,7.87%
same,"Stability RE, 30 days at −20 °C",[5]; low QC concentration,−8.36%
same,"Stability RE, 3 freeze-thaw cycles",[5]; medium QC concentration,−1.36%
same,"Stability RE, 30 days at −20 °C",[5]; medium QC concentration,−13.68%
same,"Stability RE, processed samples' stability",[5]; high QC concentration,−13.71%
same,"Stability RE, processed samples' stability",[5]; low QC concentration,9.52%
same,"Stability RE, processed samples' stability",[5]; medium QC concentration,4.57%
same,absolute bioavailability,[6],less than 1%
c1c2c(cc3c1OCO3)-c1cc3ccc4c(c3c[n+]1CC2)OCO4 [coptisine],Tsec (time of the secondary peak in C–T curve),"[1]; rat plasma, oral ZJ extract",90 min
same,Csec (drug concentration of the secondary peak in C–T curve),"[1]; rat, in vivo, po",4.96 ± 2.29 ng/mL
same,AUC(0-inf),"[1]; rat, in vivo, po, 3.38 g/kg",71.6 ± 10.7 ng·h/mL
same,AUC(0-t),"[1]; rat, in vivo, po, 3.38 g/kg",68.7 ± 10.8 ng·h/mL
same,Cmax,"[1]; rat, in vivo, po, 3.38 g/kg",14.1 ± 7.75 ng/mL
same,MRT inf,"[1]; rat, in vivo, po, 3.38 g/kg",12.3 h
same,MRT last,"[1]; rat, in vivo, po, 3.38 g/kg",10.7 h
same,Tmax,"[1]; rat, in vivo, po, 3.38 g/kg",5 h
same,half-life,"[1]; rat, in vivo, po, 3.38 g/kg",8.01 ± 1.92 h
same,AUC(0-inf),"[1]; rat, in vivo, po, 3.76 g/kg",11.8 ± 1.25 ng·h/mL
same,AUC(0-t),"[1]; rat, in vivo, po, 3.76 g/kg",11 ± 1.64 ng·h/mL
same,Cmax,"[1]; rat, in vivo, po, 3.76 g/kg",4.78 ± 2.31 ng/mL
same,MRT inf,"[1]; rat, in vivo, po, 3.76 g/kg",5.2 h
same,MRT last,"[1]; rat, in vivo, po, 3.76 g/kg",4.18 h
same,Tmax,"[1]; rat, in vivo, po, 3.76 g/kg",3 h
same,half-life,"[1]; rat, in vivo, po, 3.76 g/kg",2.93 ± 1.22 h
same,absorption rate constant (Ka) compared between intestinal sites,[3],better absorption rate at colon compared with jejunum
same,P-gp substrate,P-gp,P-gp substrates
same,"Stability RE, 3 freeze-thaw cycles",[5]; high QC concentration,0.97%
same,"Stability RE, 30 days at −20 °C",[5]; high QC concentration,0.65%
same,"Stability RE, 3 freeze-thaw cycles",[5]; low QC concentration,6.92%
same,"Stability RE, 30 days at −20 °C",[5]; low QC concentration,−11.58%
same,"Stability RE, 3 freeze-thaw cycles",[5]; medium QC concentration,5.77%
same,"Stability RE, 30 days at −20 °C",[5]; medium QC concentration,−8.99%
same,"Stability RE, processed samples' stability",[5]; high QC concentration,−8.19%
same,"Stability RE, processed samples' stability",[5]; low QC concentration,−10.47%
same,"Stability RE, processed samples' stability",[5]; medium QC concentration,−2.14%
C[n+]1c2n(c(=O)c3ccccc31)CCc1c-2[nH]c2ccccc12 [dehydroevodiamine],Csec (drug concentration of the secondary peak in C–T curve),"[1]; rat, in vivo, po",117.29 ± 45.45 ng/mL
same,Tsec (time of the secondary peak in C–T curve),"[1]; rat, in vivo, po",90 min
same,AUC(0-inf),"[1]; rat, in vivo, po, 3.38 g/kg",537 ± 55 ng·h/mL
same,AUC(0-t),"[1]; rat, in vivo, po, 3.38 g/kg",532 ± 57.8 ng·h/mL
same,Cmax,"[1]; rat, in vivo, po, 3.38 g/kg",155 ± 27.9 ng/mL
same,MRT inf,"[1]; rat, in vivo, po, 3.38 g/kg",4.71 h
same,MRT last,"[1]; rat, in vivo, po, 3.38 g/kg",4.34 h
same,Tmax,"[1]; rat, in vivo, po, 3.38 g/kg",4 h
same,half-life,"[1]; rat, in vivo, po, 3.38 g/kg",3.21 ± 2.27 h
same,AUC(0-inf),"[1]; rat, in vivo, po, 3.76 g/kg",286 ± 24.1 ng·h/mL
same,AUC(0-t),"[1]; rat, in vivo, po, 3.76 g/kg",275 ± 23.2 ng·h/mL
same,Cmax,"[1]; rat, in vivo, po, 3.76 g/kg",85.3 ± 13.4 ng/mL
same,MRT inf,"[1]; rat, in vivo, po, 3.76 g/kg",5.96 h
same,MRT last,"[1]; rat, in vivo, po, 3.76 g/kg",4.66 h
same,Tmax,"[1]; rat, in vivo, po, 3.76 g/kg",1.5 h
same,half-life,"[1]; rat, in vivo, po, 3.76 g/kg",5.03 ± 2.87 h
same,Papp,Caco-2 cell monolayer,12.6 ×10⁻⁶ cm/s
same,"Stability RE, 3 freeze-thaw cycles",[5]; high QC concentration,5.86%
same,"Stability RE, 30 days at −20 °C",[5]; high QC concentration,4.85%
same,"Stability RE, 3 freeze-thaw cycles",[5]; low QC concentration,4.36%
same,"Stability RE, 30 days at −20 °C",[5]; low QC concentration,−6.34%
same,"Stability RE, 3 freeze-thaw cycles",[5]; medium QC concentration,14.45%
same,"Stability RE, 30 days at −20 °C",[5]; medium QC concentration,−1.12%
same,"Stability RE, processed samples' stability",[5]; high QC concentration,−1.09%
same,"Stability RE, processed samples' stability",[5]; low QC concentration,−0.76%
same,"Stability RE, processed samples' stability",[5]; medium QC concentration,4.78%
COc1cc2c(cc1OC)-c1cc3ccc(OC)c(OC)c3c[n+]1CC2 [palmatine],AUC(0-inf),"[1]; rat, in vivo, po, 3.38 g/kg",96.6 ± 33.2 ng·h/mL
same,AUC(0-t),"[1]; rat, in vivo, po, 3.38 g/kg",88.3 ± 24.9 ng·h/mL
same,Cmax,"[1]; rat, in vivo, po, 3.38 g/kg",34.1 ± 19.2 ng/mL
same,MRT inf,"[1]; rat, in vivo, po, 3.38 g/kg",8.75 h
same,MRT last,"[1]; rat, in vivo, po, 3.38 g/kg",6.74 h
same,Tmax,"[1]; rat, in vivo, po, 3.38 g/kg",1.5 h
same,half-life,"[1]; rat, in vivo, po, 3.38 g/kg",5.65 ± 2.41 h
same,AUC(0-inf),"[1]; rat, in vivo, po, 3.76 g/kg",18.9 ± 5.5 ng·h/mL
same,AUC(0-t),"[1]; rat, in vivo, po, 3.76 g/kg",18.2 ± 4.98 ng·h/mL
same,Cmax,"[1]; rat, in vivo, po, 3.76 g/kg",9.74 ± 3.53 ng/mL
same,MRT inf,"[1]; rat, in vivo, po, 3.76 g/kg",4.49 h
same,MRT last,"[1]; rat, in vivo, po, 3.76 g/kg",3.86 h
same,Tmax,"[1]; rat, in vivo, po, 3.76 g/kg",3 h
same,half-life,"[1]; rat, in vivo, po, 3.76 g/kg",2.51 ± 1.73 h
same,absorption rate constant (Ka) compared between intestinal sites,[3],greater than that at ileum and colon
same,P-gp substrate,P-gp; not told,P-gp substrates
same,"Stability RE, 3 freeze-thaw cycles",[5]; high QC concentration,−12.89%
same,"Stability RE, 30 days at −20 °C",[5]; high QC concentration,−12.35%
same,"Stability RE, 3 freeze-thaw cycles",[5]; low QC concentration,−14.23%
same,"Stability RE, 30 days at −20 °C",[5]; low QC concentration,−17.74%
same,"Stability RE, 3 freeze-thaw cycles",[5]; medium QC concentration,−7.2%
same,"Stability RE, 30 days at −20 °C",[5]; medium QC concentration,−13.85%
same,"Stability RE, processed samples' stability",[5]; high QC concentration,−12.47%
same,"Stability RE, processed samples' stability",[5]; low QC concentration,−9.27%
same,"Stability RE, processed samples' stability",[5]; medium QC concentration,−2.85%
